# In US6428654B1, “Fungicidal method” (Hercules Incorporated, priority 2000, dated 2002):
# Several values for one entry are separate records, joined by “and”; a condition that tells them apart may be missing. Equal entries are not always repeated.
# Test system: Aspergillus niger (ATCC 6275)
# Assay: Microtiter XTT growth inhibition assay
# Assay type: cell-based
# Conditions: 37° C. 24 hours, XTT read at 465 nm, duplicate plates (Plate 1, Plate 2)
# Experimental: Preparation of the Spore Inoculum—Two sterile petri dishes containing potato dextrose agar are inoculated with Aspergillus niger (ATCC 6275). The plates are incubated for at least 48 hours at 35+1 ° C. At the end of the incubation period, the plates are checked for mycelia and fruiting bodies of the fungus. To prepare the spore-mycelial suspension, the agar surface is scraped with a sterile cotton tip swab. The spores are suspended from the cotton swab in a sterile test tube containing a solution of 0.85% saline and 0.01% Tween 80 (v/v). The spore-mycelial suspension is shaken or vortexed to break up spore and mycelial clumps. Prior to the addition of the spore-mycelial suspension to the test tube containing saline and Tween, a spectrophotometer is set to 650 nm and the absorbance reading is balanced to zero. The optical density (absorbance) of the spore-mycelial suspension is measured in the spectrophotometer. If necessary, the optical density is adjusted to 0.29 absorbance units by addition of diluent or spores. At an optical density of 0.29 absorbance units (at 650 nm), the concentration of spores is 1×10^9 spores/ml. The spore-mycelial suspension is diluted 1/1000 to yield inoculum used for the microtiter assay, having a concentration of 1×10^6 spores/ml.
# Microtiter Assay—Six MULTISCREEN filtration plates (96-well MULTISCREEN-GV, clear plates with 0.22 μm membrane; Millipore Corp., Molsheim, France) are used for a three dose response protocol. This protocol and the six MULTISCREEN plates allows for duplication of the experimental results. The three actives employed are BAS49002F (kresoxim methyl at 50 wt %; BASF Corporation, Ludwigshafen, Germany), AF1912 (diiodomethyl-paratolylsulfone; Angus Chemical Company, Buffalo Grove, Ill.), and MBTC (methylenebisthiocyanate; Aldrich Chemical Company, Milwaukee, Wis.). These actives are individually diluted with water to a concentration of 40 ppm actives. Using separate dilution blocks for each active, the actives are serially diluted to reach experimental dose ranges from 10 to 0.156 ppm. Along with the treatments (actives), Sabouraud Dextrose broth (DIFCO Laboratories, Detroit Mich.) and inoculum are added to each well. The microtiter plates are incubated at 37° C. for 24 hours, and after this period a 0.1% solution of XTT (2,3-bis[2-methoxy-4-nitro-5-sulfophenyl]-2H-tetrazolium-5-carboxanilide; Sigma Chemical, Saint Louis, Mo.) and 0.01% of PMS (phenazine methosulfate; Sigma Chemical, Saint Louis, Mo.) are added to each well. The plates are incubated for approximately 3 more hours. Filtration via the MULTISCREEN plates removes the mycelial growth and nonvegetated spores of Aspergillus niger. Each microtiter well is read at 465 nm for the reduction of XTT by metabolically active cells (i.e., a color change from the untreated controls would indicate respiring fungal cells). Growth inhibition results are presented in Table 2, which represents the processed absorbance data that has been converted as a percent inhibition of fungal growth by the three actives tested (BAS49002F, AF1912, and MBTC). The dashed lines in Table 2 indicate negative inhibition values, which indicate that cells were viable, but in futile cell cycles.
smiles,measurement,setting,value
"N#CSCSC#N [MBTC, methylenebisthiocyanate]",percent inhibition of fungal growth,0.156 ppm actives,"— (The dashed lines in Table 2 indicate negative inhibition values, which indicate that cells were viable, but in futile cell cycles)"
same,percent inhibition of fungal growth,0.31 ppm actives,"— (The dashed lines in Table 2 indicate negative inhibition values, which indicate that cells were viable, but in futile cell cycles)"
same,percent inhibition of fungal growth,0.625 ppm actives,"— (The dashed lines in Table 2 indicate negative inhibition values, which indicate that cells were viable, but in futile cell cycles)"
same,percent inhibition of fungal growth,1.25 ppm actives,"— (The dashed lines in Table 2 indicate negative inhibition values, which indicate that cells were viable, but in futile cell cycles)"
same,percent inhibition of fungal growth,2.5 ppm actives,86% and 84%
same,percent inhibition of fungal growth,5.0 ppm actives,88% and 89%
same,percent inhibition of fungal growth,10.0 ppm actives,88% and 89%
